Where two headings read alike, the source gives them in different places.
Assays:
[1] = system: 104 binding assays and 41 cell based and enzyme assays; assay: BioPrint general selectivity panel; details: 1 μM
Protocol: (§1) General selectivity profiling was performed at Eurofins Pharma Discovery Services using the BioPrint® panel and reference database. The panel included 104 binding assays (non-peptide, peptide and nuclear receptors, ion channels and amine transporters) and 41 cell based and enzyme assays (including 10 kinases, 9 proteases and 5 phosphodiesterases) (S4 Table). More than 70% were human targets. Compound 4 was tested at a concentration of 1 μM in duplicate (10 μM for P-gp and CYP enzymes). The resulting bioactivity fingerprint was compared with a database of >2,500 BioPrint marketed drugs and reference compounds. IC50 values for selected activities were further characterized at 8 concentrations in duplicate.

PDE6 = PDE6 (Bos taurus, UniProt P11541+P23439); assay: BioPrint panel: PDE6; assay type: biochemical
Protocol: as §1

A2A = target: T1, A2A (Homo sapiens, UniProt P29274); assay: BioPrint panel: A2A (h) (agonist); assay type: binding; details: 1 micromolar, read-out: percentage of inhibition of activity
T1 construct: purchased Eurofins Pharma Discovery Services (KinaseProfiler; Cerep BioPrint panel)
From the text: (§2) Supplement pone.0189247.s004.xlsx, sheet "Bioprint Selectivity Panel" | column: %

alpha 1B = target: T2, alpha 1B (Homo sapiens, UniProt P35368); assay: BioPrint panel: alpha 1B (h) (antagonist); assay type: binding; details: 1 micromolar, read-out: percentage of inhibition of activity
T2 construct: purchased Eurofins Pharma Discovery Services (KinaseProfiler; Cerep BioPrint panel)
From the text: as §2

beta 3 = target: T3, beta 3 (Homo sapiens, UniProt P13945); assay: BioPrint panel: beta 3 (h) (antagonist); assay type: binding; details: 1 micromolar, read-out: percentage of inhibition of activity
T3 construct: purchased Eurofins Pharma Discovery Services (KinaseProfiler; Cerep BioPrint panel)
From the text: as §2

AT2 = target: T4, AT2 (Homo sapiens, UniProt P50052); assay: BioPrint panel: AT2 (h) (agonist); assay type: binding; details: 1 micromolar, read-out: percentage of inhibition of activity
T4 construct: purchased Eurofins Pharma Discovery Services (KinaseProfiler; Cerep BioPrint panel)
From the text: as §2

APJ (apelin) = target: T5, APJ (apelin) (Homo sapiens, UniProt P35414); assay: BioPrint panel: APJ (apelin) (h) (agonist); assay type: binding; details: 1 micromolar, read-out: percentage of inhibition of activity
T5 construct: purchased Eurofins Pharma Discovery Services (KinaseProfiler; Cerep BioPrint panel)
From the text: as §2

CB2 = target: T6, CB2 (Homo sapiens, UniProt P34972); assay: BioPrint panel: CB2 (h) (agonist); assay type: binding; details: 1 micromolar, read-out: percentage of inhibition of activity
T6 construct: purchased Eurofins Pharma Discovery Services (KinaseProfiler; Cerep BioPrint panel)
From the text: as §2

D1 = target: T7, D1 (Homo sapiens, UniProt P21728); assay: BioPrint panel: D1 (h) (antagonist); assay type: binding; details: 1 micromolar, read-out: percentage of inhibition of activity
T7 construct: purchased Eurofins Pharma Discovery Services (KinaseProfiler; Cerep BioPrint panel)
From the text: as §2

ETA = target: T8, ETA (Homo sapiens, UniProt P25101); assay: BioPrint panel: ETA (h) (agonist); assay type: binding; details: 1 micromolar, read-out: percentage of inhibition of activity
T8 construct: purchased Eurofins Pharma Discovery Services (KinaseProfiler; Cerep BioPrint panel)
From the text: as §2

motilin = target: T9, motilin (Homo sapiens, UniProt O43193); assay: BioPrint panel: motilin (h) (agonist); assay type: binding; details: 1 micromolar, read-out: percentage of inhibition of activity
T9 construct: purchased Eurofins Pharma Discovery Services (KinaseProfiler; Cerep BioPrint panel)
From the text: as §2

M1 = target: T10, M1 (Homo sapiens, UniProt P11229); assay: BioPrint panel: M1 (h) (antagonist); assay type: binding; details: 1 micromolar, read-out: percentage of inhibition of activity
T10 construct: purchased Eurofins Pharma Discovery Services (KinaseProfiler; Cerep BioPrint panel)
From the text: as §2

M4 = target: T11, M4 (Homo sapiens, UniProt P08173); assay: BioPrint panel: M4 (h) (antagonist); assay type: binding; details: 1 micromolar, read-out: percentage of inhibition of activity
T11 construct: purchased Eurofins Pharma Discovery Services (KinaseProfiler; Cerep BioPrint panel)
From the text: as §2

NK2 = target: T12, NK2 (Homo sapiens, UniProt P21452); assay: BioPrint panel: NK2 (h) (agonist); assay type: binding; details: 1 micromolar, read-out: percentage of inhibition of activity
T12 construct: purchased Eurofins Pharma Discovery Services (KinaseProfiler; Cerep BioPrint panel)
From the text: as §2

Y1 = target: T13, Y1 (Homo sapiens, UniProt P25929); assay: BioPrint panel: Y1 (h) (agonist); assay type: binding; details: 1 micromolar, read-out: percentage of inhibition of activity
T13 construct: purchased Eurofins Pharma Discovery Services (KinaseProfiler; Cerep BioPrint panel)
From the text: as §2

PPARgamma = target: T14, PPARgamma (Homo sapiens, UniProt P37231); assay: BioPrint panel: PPARgamma (h) (agonist); assay type: binding; details: 1 micromolar, read-out: percentage of inhibition of activity
T14 construct: purchased Eurofins Pharma Discovery Services (KinaseProfiler; Cerep BioPrint panel)
From the text: as §2

PCP = assay: BioPrint panel: PCP (antagonist); assay type: binding; details: 1 micromolar
From the text: as §2

5-HT1B = target: T15, 5-HT1B (Rattus norvegicus, UniProt P28564); assay: BioPrint panel: 5-HT1B (antagonist); assay type: binding; details: 1 micromolar, read-out: percentage of inhibition of activity
T15 construct: purchased Eurofins Pharma Discovery Services (KinaseProfiler; Cerep BioPrint panel)
From the text: as §2

5-HT2C = target: T16, 5-HT2C (Homo sapiens, UniProt P28335); assay: BioPrint panel: 5-HT2C (h) (agonist); assay type: binding; details: 1 micromolar, read-out: percentage of inhibition of activity
T16 construct: purchased Eurofins Pharma Discovery Services (KinaseProfiler; Cerep BioPrint panel)
From the text: as §2

5-HT4e = target: T17, 5-HT4e (Homo sapiens, UniProt Q13639); assay: BioPrint panel: 5-HT4e (h) (antagonist); assay type: binding; details: 1 micromolar, read-out: percentage of inhibition of activity
T17 construct: purchased Eurofins Pharma Discovery Services (KinaseProfiler; Cerep BioPrint panel)
From the text: as §2

5-HT7 = target: T18, 5-HT7 (Homo sapiens, UniProt P34969); assay: BioPrint panel: 5-HT7 (h) (agonist); assay type: binding; details: 1 micromolar, read-out: percentage of inhibition of activity
T18 construct: purchased Eurofins Pharma Discovery Services (KinaseProfiler; Cerep BioPrint panel)
From the text: as §2

sst4 = target: T19, sst4 (Homo sapiens, UniProt P31391); assay: BioPrint panel: sst4 (h) (agonist); assay type: binding; details: 1 micromolar, read-out: percentage of inhibition of activity
T19 construct: purchased Eurofins Pharma Discovery Services (KinaseProfiler; Cerep BioPrint panel)
From the text: as §2

ERalpha = target: T20, ERalpha (Homo sapiens, UniProt P03372); assay: BioPrint panel: ERalpha (h) (agonist fluoligand); assay type: binding; details: 1 micromolar, read-out: percentage of inhibition of activity
T20 construct: purchased Eurofins Pharma Discovery Services (KinaseProfiler; Cerep BioPrint panel)
From the text: as §2

UT = target: T21, UT (Homo sapiens, UniProt Q9UKP6); assay: BioPrint panel: UT (h) (agonist); assay type: binding; details: 1 micromolar, read-out: percentage of inhibition of activity
T21 construct: purchased Eurofins Pharma Discovery Services (KinaseProfiler; Cerep BioPrint panel)
From the text: as §2

VPAC1 (VIP1) = target: T22, VPAC1 (VIP1) (Homo sapiens, UniProt P32241); assay: BioPrint panel: VPAC1 (VIP1) (h) (agonist); assay type: binding; details: 1 micromolar, read-out: percentage of inhibition of activity
T22 construct: purchased Eurofins Pharma Discovery Services (KinaseProfiler; Cerep BioPrint panel)
From the text: as §2

V1a = target: T23, V1a (Homo sapiens, UniProt P37288); assay: BioPrint panel: V1a (h) (agonist); assay type: binding; details: 1 micromolar, read-out: percentage of inhibition of activity
T23 construct: purchased Eurofins Pharma Discovery Services (KinaseProfiler; Cerep BioPrint panel)
From the text: as §2

V2 = target: T24, V2 (Homo sapiens, UniProt P30518); assay: BioPrint panel: V2 (h) (agonist); assay type: binding; details: 1 micromolar, read-out: percentage of inhibition of activity
T24 construct: purchased Eurofins Pharma Discovery Services (KinaseProfiler; Cerep BioPrint panel)
From the text: as §2

[2] = system: Ca2+ channel (L, diltiazem site); assay: BioPrint panel: Ca2+ channel (L, diltiazem site)(antagonist); assay type: binding; details: 1 micromolar
From the text: as §2

Ca2+ channel (N) = target: T25, Ca2+ channel (N) (Rattus norvegicus, UniProt Q02294); assay: BioPrint panel: Ca2+ channel (N) (antagonist); assay type: binding; details: 1 micromolar, read-out: percentage of inhibition of activity
T25 construct: purchased Eurofins Pharma Discovery Services (KinaseProfiler; Cerep BioPrint panel)
From the text: as §2

Cl- channel (GABA-gated) = assay: BioPrint panel: Cl- channel (GABA-gated) (antagonist); assay type: binding; details: 1 micromolar
From the text: as §2

COX2 = target: T26, COX2 (Homo sapiens, UniProt P35354); assay: BioPrint panel: COX2 (h); assay type: biochemical; details: 1 micromolar, read-out: percentage of inhibition of activity
T26 construct: purchased Eurofins Pharma Discovery Services (KinaseProfiler; Cerep BioPrint panel)
From the text: as §2

inducible NOS = target: T27, inducible NOS (Mus musculus, UniProt P29477); assay: BioPrint panel: inducible NOS; assay type: biochemical; details: 1 micromolar, read-out: percentage of inhibition of activity
T27 construct: purchased Eurofins Pharma Discovery Services (KinaseProfiler; Cerep BioPrint panel)
From the text: as §2

PDE3B = target: T28, PDE3B (Homo sapiens, UniProt Q13370); assay: BioPrint panel: PDE3B (h); assay type: biochemical; details: 1 micromolar, read-out: percentage of inhibition of activity
T28 construct: purchased Eurofins Pharma Discovery Services (KinaseProfiler; Cerep BioPrint panel)
From the text: as §2

neutral endopeptidase = target: T29, neutral endopeptidase (Homo sapiens, UniProt P08473); assay: BioPrint panel: neutral endopeptidase (h); assay type: biochemical; details: 1 micromolar, read-out: percentage of inhibition of activity
T29 construct: purchased Eurofins Pharma Discovery Services (KinaseProfiler; Cerep BioPrint panel)
From the text: as §2

CaMK2alpha = target: T30, CaMK2alpha (Homo sapiens, UniProt Q9UQM7); assay: BioPrint panel: CaMK2alpha (h); assay type: biochemical; details: 1 micromolar, read-out: percentage of inhibition of activity
T30 construct: purchased Eurofins Pharma Discovery Services (KinaseProfiler; Cerep BioPrint panel)
From the text: as §2

IRK (InsR) = target: T31, IRK (InsR) (Homo sapiens, UniProt P06213); assay: BioPrint panel: IRK (h) (InsR); assay type: biochemical; details: 1 micromolar, read-out: percentage of inhibition of activity
T31 construct: purchased Eurofins Pharma Discovery Services (KinaseProfiler; Cerep BioPrint panel)
From the text: as §2

Lyn A kinase = target: T32, Lyn A kinase (Homo sapiens, UniProt P07948); assay: BioPrint panel: Lyn A kinase (h); assay type: biochemical; details: 1 micromolar, read-out: percentage of inhibition of activity
T32 construct: purchased Eurofins Pharma Discovery Services (KinaseProfiler; Cerep BioPrint panel)
From the text: as §2

ATPase (Na+/K+) = assay: BioPrint panel: ATPase (Na+/K+); assay type: biochemical; details: 1 micromolar
From the text: as §2

P-gp = target: T33, P-gp (Homo sapiens, UniProt P08183); assay: BioPrint panel: P-gp (MDR1-MDCKII, calcein AM substrate); assay type: in vitro ADME; details: 10 micromolar
T33 construct: purchased Eurofins Pharma Discovery Services (KinaseProfiler; Cerep BioPrint panel)
From the text: as §2

PDE6, sequence (P11541 2-856): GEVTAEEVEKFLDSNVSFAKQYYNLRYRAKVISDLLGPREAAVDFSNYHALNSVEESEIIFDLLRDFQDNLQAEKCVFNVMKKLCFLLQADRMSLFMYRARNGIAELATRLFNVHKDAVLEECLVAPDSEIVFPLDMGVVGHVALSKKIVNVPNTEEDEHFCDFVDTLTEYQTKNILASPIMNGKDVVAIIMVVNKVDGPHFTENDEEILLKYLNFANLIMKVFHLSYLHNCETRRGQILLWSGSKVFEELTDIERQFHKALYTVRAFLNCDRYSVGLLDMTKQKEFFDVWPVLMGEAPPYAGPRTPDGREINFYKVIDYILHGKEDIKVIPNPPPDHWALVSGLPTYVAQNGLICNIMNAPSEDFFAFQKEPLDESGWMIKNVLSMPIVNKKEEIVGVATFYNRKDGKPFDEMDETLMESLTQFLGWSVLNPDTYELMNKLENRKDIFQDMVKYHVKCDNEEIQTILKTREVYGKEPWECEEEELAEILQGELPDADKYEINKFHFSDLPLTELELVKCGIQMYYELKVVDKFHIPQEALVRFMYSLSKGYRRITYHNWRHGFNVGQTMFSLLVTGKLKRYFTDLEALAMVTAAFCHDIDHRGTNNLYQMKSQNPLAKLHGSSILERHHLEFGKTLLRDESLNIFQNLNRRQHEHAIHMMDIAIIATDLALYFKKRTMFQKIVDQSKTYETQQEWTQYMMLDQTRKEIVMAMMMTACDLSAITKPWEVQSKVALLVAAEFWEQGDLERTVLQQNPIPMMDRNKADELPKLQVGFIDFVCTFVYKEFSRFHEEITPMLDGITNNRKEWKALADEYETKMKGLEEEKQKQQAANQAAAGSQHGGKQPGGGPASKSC
PDE6, sequence (P23439 2-850): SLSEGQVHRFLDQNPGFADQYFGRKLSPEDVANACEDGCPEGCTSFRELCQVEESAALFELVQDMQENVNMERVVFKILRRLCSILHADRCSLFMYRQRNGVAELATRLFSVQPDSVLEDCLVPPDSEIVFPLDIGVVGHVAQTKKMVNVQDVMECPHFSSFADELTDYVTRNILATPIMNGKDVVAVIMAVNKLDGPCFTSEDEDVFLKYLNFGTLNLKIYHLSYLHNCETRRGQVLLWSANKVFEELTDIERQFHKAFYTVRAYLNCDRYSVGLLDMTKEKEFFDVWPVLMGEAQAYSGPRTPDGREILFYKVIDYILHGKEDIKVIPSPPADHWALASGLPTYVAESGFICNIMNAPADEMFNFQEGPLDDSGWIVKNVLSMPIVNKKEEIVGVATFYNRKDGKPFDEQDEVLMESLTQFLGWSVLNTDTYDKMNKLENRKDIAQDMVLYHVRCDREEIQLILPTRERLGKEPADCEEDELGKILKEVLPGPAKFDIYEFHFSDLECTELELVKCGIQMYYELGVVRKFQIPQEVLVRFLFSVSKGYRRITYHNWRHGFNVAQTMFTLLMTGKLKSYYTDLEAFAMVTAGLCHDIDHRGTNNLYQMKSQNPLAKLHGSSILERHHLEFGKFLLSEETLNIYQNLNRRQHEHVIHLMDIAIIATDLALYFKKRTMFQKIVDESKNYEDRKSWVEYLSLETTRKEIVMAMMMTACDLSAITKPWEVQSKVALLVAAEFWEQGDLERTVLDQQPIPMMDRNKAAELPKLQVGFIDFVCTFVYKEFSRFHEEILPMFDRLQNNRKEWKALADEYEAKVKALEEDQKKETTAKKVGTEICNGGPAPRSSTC
PDE6, sequence (P04972 whole entry partner): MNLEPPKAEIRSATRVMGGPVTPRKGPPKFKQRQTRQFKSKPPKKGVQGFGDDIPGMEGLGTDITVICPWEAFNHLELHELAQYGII
T30 sequence (Q9UQM7 whole entry): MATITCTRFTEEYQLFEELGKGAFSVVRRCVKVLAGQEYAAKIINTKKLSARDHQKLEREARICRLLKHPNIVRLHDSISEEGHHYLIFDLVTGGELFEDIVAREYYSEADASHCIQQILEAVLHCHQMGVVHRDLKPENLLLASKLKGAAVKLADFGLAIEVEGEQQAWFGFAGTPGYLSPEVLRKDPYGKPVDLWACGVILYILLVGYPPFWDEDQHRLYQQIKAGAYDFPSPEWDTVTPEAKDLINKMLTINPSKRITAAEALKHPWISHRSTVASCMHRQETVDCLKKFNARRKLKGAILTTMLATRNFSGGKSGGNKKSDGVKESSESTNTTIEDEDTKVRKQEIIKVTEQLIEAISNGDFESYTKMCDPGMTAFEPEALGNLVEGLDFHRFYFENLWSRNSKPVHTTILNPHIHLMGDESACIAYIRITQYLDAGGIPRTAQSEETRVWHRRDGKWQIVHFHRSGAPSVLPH
T16 sequence (P28335 33-458): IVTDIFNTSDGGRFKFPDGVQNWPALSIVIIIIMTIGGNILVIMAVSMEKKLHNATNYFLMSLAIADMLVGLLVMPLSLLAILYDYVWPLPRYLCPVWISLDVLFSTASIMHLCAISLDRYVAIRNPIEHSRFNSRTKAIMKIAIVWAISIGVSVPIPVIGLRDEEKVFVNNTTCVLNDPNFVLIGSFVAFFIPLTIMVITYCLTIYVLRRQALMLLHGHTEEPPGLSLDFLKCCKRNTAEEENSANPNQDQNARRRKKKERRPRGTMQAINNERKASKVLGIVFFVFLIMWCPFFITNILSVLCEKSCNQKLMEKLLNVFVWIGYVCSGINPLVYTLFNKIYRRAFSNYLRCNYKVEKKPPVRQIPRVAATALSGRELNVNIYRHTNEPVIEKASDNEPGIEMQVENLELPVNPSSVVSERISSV
T9 sequence (O43193 whole entry): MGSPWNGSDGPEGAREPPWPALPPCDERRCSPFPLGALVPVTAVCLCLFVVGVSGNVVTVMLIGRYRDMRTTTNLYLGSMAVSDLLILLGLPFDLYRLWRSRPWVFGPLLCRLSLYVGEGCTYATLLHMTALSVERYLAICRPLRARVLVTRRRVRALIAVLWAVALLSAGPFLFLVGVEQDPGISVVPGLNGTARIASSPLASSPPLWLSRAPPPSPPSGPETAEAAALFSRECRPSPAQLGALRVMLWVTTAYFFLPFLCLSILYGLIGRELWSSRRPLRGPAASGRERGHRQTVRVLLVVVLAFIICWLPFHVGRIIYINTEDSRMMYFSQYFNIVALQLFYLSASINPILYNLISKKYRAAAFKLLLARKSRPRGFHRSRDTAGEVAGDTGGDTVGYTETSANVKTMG
T11 sequence (P08173 whole entry): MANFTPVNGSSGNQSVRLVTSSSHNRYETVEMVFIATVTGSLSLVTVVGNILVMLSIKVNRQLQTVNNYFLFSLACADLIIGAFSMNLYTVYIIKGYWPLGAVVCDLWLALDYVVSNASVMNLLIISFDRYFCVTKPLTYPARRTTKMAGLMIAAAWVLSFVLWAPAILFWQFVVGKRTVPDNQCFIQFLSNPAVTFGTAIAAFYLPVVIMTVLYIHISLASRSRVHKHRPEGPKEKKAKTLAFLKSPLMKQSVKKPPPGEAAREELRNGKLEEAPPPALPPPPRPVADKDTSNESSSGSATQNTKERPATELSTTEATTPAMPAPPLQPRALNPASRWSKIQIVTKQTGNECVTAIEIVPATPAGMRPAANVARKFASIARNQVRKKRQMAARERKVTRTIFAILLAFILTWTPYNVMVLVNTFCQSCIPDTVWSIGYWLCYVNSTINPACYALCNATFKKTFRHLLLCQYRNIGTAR
T32 sequence (P07948 whole entry): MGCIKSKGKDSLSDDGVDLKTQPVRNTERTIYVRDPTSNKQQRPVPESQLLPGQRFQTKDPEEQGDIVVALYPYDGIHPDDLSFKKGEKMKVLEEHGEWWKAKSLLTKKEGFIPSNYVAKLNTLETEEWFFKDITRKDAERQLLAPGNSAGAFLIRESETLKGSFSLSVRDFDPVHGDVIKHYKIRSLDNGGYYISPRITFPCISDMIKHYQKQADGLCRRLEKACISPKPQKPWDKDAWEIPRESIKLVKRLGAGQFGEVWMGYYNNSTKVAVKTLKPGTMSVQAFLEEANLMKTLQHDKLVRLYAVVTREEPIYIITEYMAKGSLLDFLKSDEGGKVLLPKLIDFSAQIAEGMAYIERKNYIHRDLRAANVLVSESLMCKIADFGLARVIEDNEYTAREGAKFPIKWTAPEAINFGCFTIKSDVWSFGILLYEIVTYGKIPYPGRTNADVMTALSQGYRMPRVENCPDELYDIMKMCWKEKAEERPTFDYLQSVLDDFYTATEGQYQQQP
T21 sequence (Q9UKP6 whole entry): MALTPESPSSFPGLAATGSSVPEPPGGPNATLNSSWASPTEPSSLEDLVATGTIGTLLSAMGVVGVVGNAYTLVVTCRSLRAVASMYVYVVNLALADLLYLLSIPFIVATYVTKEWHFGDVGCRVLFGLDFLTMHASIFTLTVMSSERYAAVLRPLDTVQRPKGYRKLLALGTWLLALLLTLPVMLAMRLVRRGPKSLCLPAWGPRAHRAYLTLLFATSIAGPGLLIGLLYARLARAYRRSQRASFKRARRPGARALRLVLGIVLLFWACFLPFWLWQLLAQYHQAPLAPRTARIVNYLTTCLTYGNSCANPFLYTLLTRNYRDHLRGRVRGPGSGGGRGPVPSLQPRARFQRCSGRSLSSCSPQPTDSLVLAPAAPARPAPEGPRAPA
T6 sequence (P34972 whole entry): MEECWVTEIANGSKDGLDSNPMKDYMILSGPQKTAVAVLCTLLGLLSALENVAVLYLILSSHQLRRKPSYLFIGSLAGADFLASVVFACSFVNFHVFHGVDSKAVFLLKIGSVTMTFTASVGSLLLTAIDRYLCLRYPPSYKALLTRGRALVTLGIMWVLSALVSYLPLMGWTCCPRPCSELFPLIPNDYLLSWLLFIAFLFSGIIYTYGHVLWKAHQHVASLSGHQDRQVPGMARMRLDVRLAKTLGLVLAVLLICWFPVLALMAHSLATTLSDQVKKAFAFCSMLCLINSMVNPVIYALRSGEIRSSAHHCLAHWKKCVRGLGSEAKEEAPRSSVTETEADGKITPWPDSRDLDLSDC

Cn1cc(-c2cccc(-c3nc(C(=O)NC4C5CC6CC4CC(O)(C6)C5)c(N)nc3N)c2)cn1 (stereo not shown) [compound 4]
Inhibition of 129 additional activities [1]: less than 50%
inhibition at 1 µM (PDE6; 1 μM, read-out: inhibition of PDE6): 55%
inhibition at 1 µM (PDE6; 1 micromolar, PDE6 (non-selective), read-out: percentage of inhibition of activity): 55.6%
inhibition at 1 µM (A2A): -5.3%
inhibition at 1 µM (alpha 1B): 2.4%
inhibition at 1 µM (beta 3): 8.1%
inhibition at 1 µM (AT2): -8%
inhibition at 1 µM (APJ (apelin)): 0.8%
inhibition at 1 µM (CB2): -12.2%
inhibition at 1 µM (D1): 2.3%
inhibition at 1 µM (ETA): -12.5%
inhibition at 1 µM (motilin): -4.9%
inhibition at 1 µM (M1): -16.7%
inhibition at 1 µM (M4): 0.7%
inhibition at 1 µM (NK2): -1.8%
inhibition at 1 µM (Y1): -9.2%
inhibition at 1 µM (PPARgamma): 3.2%
percentage of inhibition of activity (PCP): -2.1%
inhibition at 1 µM (5-HT1B): -1.1%
inhibition at 1 µM (5-HT2C): -17.7%
inhibition at 1 µM (5-HT4e): 3.8%
inhibition at 1 µM (5-HT7): -4.3%
inhibition at 1 µM (sst4): -11.8%
inhibition at 1 µM (ERalpha): -10.3%
inhibition at 1 µM (UT): 7.4%
inhibition at 1 µM (VPAC1 (VIP1)): -4.6%
inhibition at 1 µM (V1a): -9.3%
inhibition at 1 µM (V2): 0%
percentage of inhibition of activity [2]: -22.4%
inhibition at 1 µM (Ca2+ channel (N)): -2.7%
percentage of inhibition of activity (Cl- channel (GABA-gated)): 0.5%
inhibition at 1 µM (COX2): -12.1%
inhibition at 1 µM (inducible NOS): -8.8%
inhibition at 1 µM (PDE3B): 5.8%
inhibition at 1 µM (neutral endopeptidase): 15.6%
inhibition at 1 µM (CaMK2alpha): -53.9%
inhibition at 1 µM (IRK (InsR)): 5%
inhibition at 1 µM (Lyn A kinase): 0.1%
percentage of inhibition of activity (ATPase (Na+/K+)): 0%
percentage of inhibition of activity (P-gp): 82.8%

— PMC5761851, “Application of a phenotypic drug discovery strategy to identify biological and chemical starting points for inhibition of TSLP production in lung epithelial cells” (PLoS ONE, 2018)
